Measurements as given in patent US20260242738A1, “ALK5 INHIBITORS FOR EFFICIENT DERIVATION OF MESENCHYMAL STEM CELLS FROM EMBRYONIC STEM CELLS” (SCRIPPS HEALTH, priority 2022, published 2026).

Columns and labels:
pluripotent stem cells = conditions: LLY-507 and AZD5153 combined, monolayer on Matrigel-coated plates; cited from earlier work
hiPSC = conditions: CHIR99021 and TTNPB used together; cited from earlier work
[1] = test system: ex vivo human meniscus tissue; assay: ES-MSC on growth factor conjugated collagen scaffolds implanted into ex vivo human meniscus defects; format: cell-based; conditions: growth factor conjugated scaffold, 2 weeks in vitro, 5 weeks in ex vivo meniscus defect; ES-MSC from SB525334
Description: In a similar experiment, meniscus cartilage-like tissues produced by seeding ES-MSC derived from ALK-5 inhibitor SB525334 upon blow spun collagen scaffolds were implanted into ex vivo human meniscus defects. ES-MSC were seeded upon a glutaraldehyde crosslinked pneumatospun collagen type I scaffold (3.5×1 mm disks) that was conjugated with growth factors (TGFb1, TGFb3 or PDGFbb) or unconjugated (control). After 2 weeks in differentiation medium in vitro, the disks were implanted into 3.5 mm defects formed in ex vivo human meniscus tissue and cultured for 5 weeks.

[2] = test system: ex vivo osteoarthritic cartilage explants; assay: Ex vivo human osteoarthritic cartilage defect repair with fibrin-ECM constructs or pellets; format: cell-based; conditions: implanted as hydrogel or pellets, 3 weeks, serum-free chondrogenic medium with TGFβ3 10 ng/ml
Description: Monolayer cultured ES-MSC were suspended in a hydrogel wafer composed of collagen II (Innovative Research Inc. Novi, MI), hyaluronate (Supartz FX sodium hyaluronate, Seikagaku Corp. Tokyo, Japan), chondroitin sulfate (Sigma-Aldrich) and fibrin (Baxter Healthcare, Deerfield, IL) at a density of 20×10^6 cells per ml. The fibrinogen and thrombin components were prepared separately. To each fibrinogen component, 2 mg/ml sodium hyaluronate, 2 mg/ml chondroitin sulfate and 6 mg/ml collagen II was added (2× concentration of final). Cells were added to the thrombin component at a density of 40×10^6 cells per ml. Thrombin and fibrinogen components in individual syringes were attached to a Baxter DUO mixing syringe and extruded to form the coagulated constructs. The constructs were either directly implanted into ex vivo cartilage tissue or coagulated in 6 well tissue culture plates for 4 to 8 minutes before 4-6 ml of chondrogenic medium was added. To prevent shrinkage of the constructs during culture, the gels were held on AdminPatch microneedle arrays (AdminMed, Sunnyvale, CA) for the duration of their culture.
Osteochondral tissues were obtained from patients ranging between 60 to 70 years of age undergoing total knee arthroplasty within 4-6 hours of surgery (approved by Scripps Institutional Review Board) as previous described. Cartilage disks (6 mm in diameter and ~2-3 mm thick) were harvested from the osteochondral specimens using a sterile dermal punch. The cartilage tissue was cultured in medium consisting of DMEM (Mediatech Inc., Manassas, VA) supplemented with 10% calf serum (Omega Scientific Inc., Tarzana, CA) and 1% Penicillin-Streptomycin-Gentamycin (Life Technologies, Carlsbad, CA). Cartilage disks were maintained in 6-well plates (2-4 per well) in 8 ml medium for 72 hours before creation of the surgical defect. A flame-sterilized stainless-steel burr was used create defects approximately 2×2 mm wide and 0.5 to 1 mm deep. These defects were filled with pellets or hydrogel constructs trimmed to size using 2 mm dermal biopsy punches. […]

HADC 100 ES-MSC = assay: Pellet culture chondrogenesis, histology and immunohistochemistry; format: cell-based, human; conditions: HADC 100 ES-MSC, 3 weeks, Safranin-O, collagen type I and II
Description: Monolayer-expanded ES-MSC (passage 2-5) were detached using Accutase® and 0.5×10^6 cells in 0.5 ml of chondrogenic medium were centrifuged at 900 rpm (~770 G) for 5 minutes to form high-density pellets. At least 5-6 pellets, for each ES-MSC condition, were cultured in serum-free chondrogenic medium consisting of Dulbecco's Modified Eagle Medium (Mediatech Inc., Manassas, VA), 1×ITS supplement (Sigma-Aldrich, St. Louis, MO), 100 nM Dexamethasone (Sigma), 1.25 mg/ml human serum albumin (Bayer, Leverkusen, Germany), 100 μM ascorbic acid 2-phosphate (Sigma), 1% penicillin/streptomycin/gentamycin (PSG, Gibco, Carlsbad, CA), and 10 ng/ml TGFβ3 (PeproTech, Rocky Hill, NJ). Pellets for ex vivo implantation were cultured for 3 days before implantation; pellets for histologic or gene expression analysis were maintained in culture for 3 weeks with media changes every 3 to 4 days.
Cell pellets and explants were fixed in Z-Fix (3.7% formaldehyde, Anatech Ltd., Battle Creek, MI), processed for embedding in paraffin, and cut into 4 μm-thick sections. Sections were stained with Safranin-O and Fast Green to visualize glycosaminoglycan distribution in the tissues. Alzarin Red S staining was used to detect the presence of mineralized matrix.
For assessment of collagen types I and II, sections were pretreated with pepsin (Digest-All 3, Thermo Fisher Scientific) for 9 minutes at 37° C. in a humid chamber before incubation at 4° C. for 12 to 16 hours with the following primary antibodies: rabbit anti-human collagen type I antibody (Ab 34710, Abcam, Cambridge, MA) 1 μg/ml; or mouse anti-human collagen type II (II-II6B3, Hybridoma Bank, University of Iowa) 2 μg/ml. For color development, the ImmPRESS secondary DAB (brown) or AP (red) kits (Vector Laboratories, Burlingame, CA) was used. Isotype controls were used to monitor non-specific staining.

## COc1nnc2ccc(N3CCC(c4ccc(OCCN5CCN(C)C(=O)[C@H]5C)cc4)CC3)nn12 [AZD5153]
Pluripotent stem cells
  induction of MSC phenotype: successfully induced MSC phenotype

## C/C(=C\c1ccc(C(=O)O)cc1)c1ccc2c(c1)C(C)(C)CCC2(C)C [TTNPB]
hiPSC
  collagen type II immunocytochemical staining of chondroprogenitors: abundant collagen type II immunocytochemical staining

## TGFβ1: growth factor conjugated to pneumatospun collagen type I scaffold
[1]
  collagen type of neo-meniscus like ECM: higher in collagen type II

## O=C(NC1CCOCC1)c1ccc(-c2cc(-c3c[nH]nc3-c3ccccn3)ccn2)cc1 [GW788388]
[2]
  cartilaginous neo-tissue formation in ex vivo osteoarthritic explants: formed equally well
HADC 100 ES-MSC
  cartilage-like tissue formation in high density pellets: also produced cartilage-like tissue

## Cc1c[nH]c(-c2cnc(NCCNc3ccc(C#N)cn3)nc2-c2ccc(Cl)cc2Cl)n1 [CHIR99021]
hiPSC
  collagen type II immunocytochemical staining of chondroprogenitors: abundant collagen type II immunocytochemical staining

## Cc1cn(CCN2CCN(c3ccccc3-c3cc(C#N)cc(C(=O)NCCCN4CCCC4)c3)CC2)c2ccccc12 [LLY-507]
Pluripotent stem cells
  induction of MSC phenotype: successfully induced MSC phenotype

B1: TGFb3: growth factor conjugated to pneumatospun collagen type I scaffold (protein, UniProt P10600 301-412, looked up)
Transforming growth factor …: ALDTNYCFRNLEENCCVRPLYIDFRQDLGWKWVHEPKGYYANFCSGPCPYLRSADTTHSTVLGLYNTLNPEASASPCCVPQDLEPLTILYYVGRTPKVEQLSNMVVKSCKCS
modifications: conjugated to collagen type I scaffold
[1]
  collagen type of neo-meniscus like ECM: higher in collagen type II

B2: PDGFbb: growth factor conjugated to pneumatospun collagen type I scaffold (protein, UniProt P01127 82-190, looked up)
Platelet-derived growth …: SLGSLTIAEPAMIAECKTRTEVFEISRRLIDRTNANFLVWPPCVEVQRCSGCCNNRNVQCRPTQVQLRPVQVRKIEIVRKKPIFKKATVTLEDHLACKCETVAAARPVT
modifications: BB homodimer; conjugated to collagen scaffold
[1]
  collagen type of neo-meniscus like ECM: both collagen type I and II rich ECM
